Experiments:
[1] = test system: TAR RNA; assay: L-arginine-Amberlite affinity column elution of TAR RNA; type: binding, HIV-1; conditions: concentration that elutes 50% of TAR RNA from L-arginine-Amberlite affinity column
[2] = test system: TAR RNA; assay: Gel-shift binding to TAR RNA; design: species or system HIV-1; conditions: for Kd: CD50 normalized to the reported conditions (Calnan et al., 1991 b), read-out: apparent Kd; for effect of ten-fold excess of yeast tRNA on complex formation with TAR: ten-fold excess of tRNA (100 ng per lane)
Protocol: The model Tat peptide (R52: […]) was prepared by the Weizmann Institute Chemical Services and was purified by reverse phase HPLC (C-18) (Lapidot et al., 1995). […] The RNA was transcriptionally labeled with α-^32P UTP, purified on a 12% polyacrylamide/7M urea gel (19:1 acrylamide:bis-acrylamide) and was eluted from the gel by 0.5M ammonium acetate, 10 mM magnesium acetate, 1 mM EDTA and 0.1% SDS. The sample was subjected to phenol extraction and the RNA was precipitated from 70% ethanol. Purified RNA was dissolved in diethyl pyrocarbonate-treated water (DEPC water), its concentration was determined by UV absorption at 260 nm and the specific radioactivity was determined by scintillation counting on a LS 1701 “Bruker” counter.
To study the affinity of the test compounds to TAR, gel-shift and gel-shift inhibition experiments were performed. The binding reaction mixtures (20 μl) contained ^32P-labeled TAR (18-44) RNA oligonucleotide (3-6 nM) and Tat R52 peptide (35-75 nM) in a binding buffer (10 mM Tris-HCl pH 7.5, 70 mM NaCl, 0.2 mM EDTA and 5% glycerol). The reaction mixtures were incubated for 10 minutes on ice and resolved by electrophoresis on a 10% non-denaturing polyacrylamide gel (40:1 acrylamide:bis-acrylamide) at 200V, for 3 h at 4° C. Gels were dried and visualized by autoradiography. Quantitations were obtained by optical densitometry of films. Alternatively, results were visualized by exposing the wet gels to Fuji phosphoimager plates, which were read on a “Storm 820” (Molecular Dynamics) phosphoimager. […]
Binding of aminoglycoside-arginine conjugates (AAC) to TAR RNA was measured by adding varying concentrations of each conjugate to reaction mixtures (20 μl) which contained 12 nM ^32P-labeled TAR RNA. The reactions were analyzed as described above.

[3] = test system: HIV-1 NL4-3; assay: Anti-HIV assay, MTT, MT-4 cells; type: cell-based
Protocol: The HIV-1 strains NL4-3 and Ba-L and the CD4^+lymphocytic cell lines SUP-T1, MT-4 and MT-2 and P4-CCR5 MAGI cells were obtained from the MRC AIDS reagent program or the NIH, AIDS Research and Reference Reagent Program.
The cells were infected by incubation with different titers of the HIV-1 strains for 2 hrs at 37° C. in the presence or absence of the AAC of the invention. Then the cells were washed from the virus by centrifugation at 400 g and the supernatants were discarded. The cells were resuspended in culture medium, supplemented with different concentrations of the test compounds. The cells were allowed to proliferate for 5 days, the number of viable cells was quantified by a tetrazolium-based colorimetric method (CellTiter 96® AQueous One solution Cell Proliferation Assay, Promega). Anti-HIV activity in P4-CCR5 MAGI cells was done as follows: cells (1×10^5/ml) were infected with 10 ng/ml of p24 antigen of HIV-1 Ba-L in the presence of varying concentrations of the test compound. 24 hours post infection, cells were washed twice with PBS and resuspended in the medium containing the appropriate drug concentration. Five days after infection the cells were washed with PBS and evaluated for β-galactosidase activity.

[4] = test system: HIV-1 AZT-resistant clinical isolate AOM; assay: Anti-HIV assay, MTT; type: cell-based
[5] = test system: HIV-1 NL4-3 AMD3100-resistant; type: cell-based; conditions: for cross-resistance of NL4-3 AMD3100-resistant virus: relative to NL4-3
[6] = test system: HIV-1 NL4-3; assay: Virus-binding assay, p24 antigen bound to MT-4 cells; type: cell-based; conditions: 1 hour at 37° C.; dose dependent
Protocol: (§1) MT4 cells (5×10^5) were incubated with supernatant containing 1×10^5 pg of p24 antigen of wild type HIV-1 in the presence of different concentrations of the test compound. One hour after infection, cells were washed 3 times with PBS and p24 antigen bound to the cells was determined by a commercial ELISA test (Coulter, Spain).

[7] = test system: R5 strain Ba-L; assay: Virus-binding assay, MT-4 cells; type: cell-based, HIV-1; conditions: dose dependent; data not shown
Protocol: as §1

[8] = molecular target: CXCR4 (Homo sapiens, UniProt P61073); assay: Inhibition of anti-CXCR4 mAb (12G5) binding, flow cytometry, PHA-activated PBMC; design: endogenous in cells; conditions: for IC50: read-out: IC50-12G5 PMBC
Protocol: Measurement of chemokine receptors CXCR4, CCR5 and the CD4 receptor on phytohemagglutinin (PHA)-activated PBMC was performed by flow cytometry analysis. Briefly, 0.5×10^6 cells were washed in ice-cold phosphate-buffered saline (PBS) and incubated for 30 minutes at 4÷C. with fluorescent labelled mAb 12G5 and 2D7 and Leu3a (Becton Dickinson, San Jose, Calif.) or with isotype control mAbs in the presence or absence of the test compound. Then, the cells were washed with ice-cold PBS and were fixed in PBS containing 1% formaldehyde. For each sample, 10,000 events were analysed in a FACScalibur™ system (Becton Dickinson). Data were acquired and analysed with CellQuest™ software (Becton Dickinson).

[9] = molecular target: CCR5 (Homo sapiens, UniProt P51681); assay: RANTES-induced intracellular calcium signal in THP-1, CCR5+ cells; conditions: data not shown
Chain of CCR5 (P51681 whole entry): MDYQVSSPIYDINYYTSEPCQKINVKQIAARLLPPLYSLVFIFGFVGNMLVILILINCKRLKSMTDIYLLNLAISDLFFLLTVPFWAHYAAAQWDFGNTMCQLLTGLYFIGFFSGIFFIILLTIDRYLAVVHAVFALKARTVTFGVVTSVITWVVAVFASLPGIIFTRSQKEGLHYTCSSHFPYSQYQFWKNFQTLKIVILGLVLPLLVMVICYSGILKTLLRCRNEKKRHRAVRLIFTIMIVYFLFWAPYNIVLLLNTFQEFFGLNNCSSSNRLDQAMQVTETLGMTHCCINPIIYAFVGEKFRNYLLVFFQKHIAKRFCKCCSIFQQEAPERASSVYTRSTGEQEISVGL

Chain of CXCR4 (P61073 whole entry): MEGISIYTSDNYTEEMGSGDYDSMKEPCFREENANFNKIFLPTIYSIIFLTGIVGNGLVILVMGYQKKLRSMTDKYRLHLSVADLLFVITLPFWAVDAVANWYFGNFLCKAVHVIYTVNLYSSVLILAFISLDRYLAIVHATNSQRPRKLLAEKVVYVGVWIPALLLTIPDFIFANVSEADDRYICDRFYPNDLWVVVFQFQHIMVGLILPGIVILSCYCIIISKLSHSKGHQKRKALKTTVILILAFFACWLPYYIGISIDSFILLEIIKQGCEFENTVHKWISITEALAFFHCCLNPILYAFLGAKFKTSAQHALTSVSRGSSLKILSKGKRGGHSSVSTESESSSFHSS

Molecule: N=C(N)NCCCC(N)C(=O)NCC1OC(OC2C(NC(=O)C(N)CCCNC(=N)N)CC(NC(=O)C(N)CCCNC(=N)N)C(OC3OC(CO)C(O)C(NC(=O)C(N)CCCNC(=N)N)C3O)C2O)C(O)C(O)C1O (stereo not shown) [R4K, Tetraargininamido-kanamycin A conjugate]
- CE50 [1]: 2.5 mM
- CD50 ([2]; 12 nM 32P-labeled TAR): 2500 nM
- CD50 ([2]; 50% binding, TAR RNA 12 nM): 2500 nM
- Kd [2]: 0.416 µM
- effect of ten-fold excess of yeast tRNA on complex formation with TAR [2]: do not inhibit the binding
- EC50 [3]: 31 µM
- EC50 [4]: 67 µM
- cross-resistance of NL4-3 AMD3100-resistant virus [5]: > 4 fold
- binding of HIV-1 NL4-3 to MT-4 cells [6]: inhibit the binding
- binding of the R5 strain Ba-L to MT-4 cells [7]: inhibited the binding
- IC50 [8]: 2.2 µM
- intracellular Ca2+ signal induced by RANTES [9]: did not inhibit

Molecule: Triargininamido-gentamicin conjugate [R3G]
- CE50 [1]: 1.4 mM
- CD50 ([2]; 50% binding, TAR RNA 12 nM): ~500 nM
- Kd [2]: 0.083 µM
- effect of ten-fold excess of yeast tRNA on complex formation with TAR [2]: do not inhibit the binding
- EC50 [3]: 15 µM
- EC50 [4]: 16 µM
- EC50 ([5]; MTT assay, read-out: EC50 HIV-1 AMD 3100res): > 133 µM
- cross-resistance of NL4-3 AMD3100-resistant virus [5]: > 9 fold
- binding of HIV-1 NL4-3 to MT-4 cells [6]: inhibit the binding
- binding of the R5 strain Ba-L to MT-4 cells [7]: inhibited the binding
- binding of 12G5 mAb to PHA-activated PBMC ([8]; 5 μM): suppressed
- IC50 [8]: 2.7 µM
- intracellular Ca2+ signal induced by RANTES [9]: did not inhibit

Source: US6642365B1, “Anti-(retro)viral conjugates of saccharides and acetamidino or guanidino compounds” (Yeda Research and Development Co. Ltd., priority 2001, dated 2003)
